Here are results for two compounds from paper PMC10985088, “Synthesis and biological evaluation of echinomycin analogues as potential colon cancer agent” (Scientific Reports, 2024).

Bounds are passed on as bounds.

As usually defined, the IC50 is the concentration needed to halve the response being measured.

One series deals with SW620 cells. Nature of the series: WST-8 cytotoxicity assay, SW620. Particulars: read-out: IC50 SW620; human colon cancer cell, 72 h, mean ± SE (n = 3). The protocol:
(§1) With a range of chromophore analogues in hand, their toxicity to SW620 cells was investigated by WST assays.
(§2) Basically, the evaluation was performed using methods previously reported by our group[20],[23]. Cytotoxic activities of compounds against MIA PaCa-2 (American Type Culture Collection), SW620 (European Collection of Authenticated Cell Cultures) were measured by WST-8 assay according to manufacturer’s protocol. Briefly, cells (1 × 10^4 cells/well) in a 96-well plate were cultured in medium (for MIA PaCa-2, D-MEM (Wako, Japan) containing 10% fetal bovine serum (Funakoshi, Japan), 100 units/mL penicillin G and 100 µg/mL streptomycin (Wako, Japan), for SW620, RPMI-1640 (Wako, Japan) containing 10% fetal bovine serum, 100 units/mL penicillin G and 100 µg/mL streptomycin) were cultured at 37 °C for 24 h under 5% CO2 atmosphere. Then, cells were treated with test compounds (final DMSO concentration was 1%) at 37 °C for 72 h under 5% CO2 atmosphere. Then, cells were treated with a solution of Cell Counting Kit-8® (Dojindo, Japan) for 3 h. After that, cell viabilities were determined based on the measurement of absorption at 450 nm of the wells by using TECAN Infinite® M200 microplate reader. The results were expressed as a percentage of the negative control (cells treated with DMSO only), and that value was fixed at 100%.
(In general: Tetrazolium assays rely on reduction of a dye to a coloured formazan, in cell work by metabolically active cells.)

Another series concerns MIA PaCa-2 cells. Particulars: read-out: IC50 MIA PaCa-2; human pancreatic carcinoma cell, 72 h, mean ± SE (n = 3). The protocol:
as §1, §2

Series [1] can be described thus: Hepatic microsomal stability assay, human. Particulars: 30 min; for CLint scaled: microsomes, 1 μM; for CLint scaled / CLint scaled at 1 μM: 0.2 mg/mL microsomes, 37 °C; for CLint scaled at 1 μM: human liver microsomes, pH 7.4, 1 μM. In kind it is in vitro ADME. The protocol:
(§3) Before investigating the in vivo efficacy of 3, its metabolic stability was evaluated by treatment with human or mouse liver microsomes at 37 °C for 30 min, and the remaining analogues were analyzed by LC–MS/MS (Table 3). […] This means that approximately 67% of 3 was unaffected by human liver microsomes.
(§4) Basically, the analysis was performed using methods previously reported. Disappearance of the parent compound over time was measured by using the amount of drug at time zero as a reference. After 5 min of preincubation, 1 mM NADPH (final concentration, the same applies to the following, NADPH( +)) or 0.1 M phosphate buffer (pH 7.4, NADPH(−))) was added to a mixture containing 1 μM of the test compound, 0.2 mg/mL of human or mouse liver microsomes (Sekisui XenoTech LLC (Kansas City, KS)), 1 mM EDTA and 0.1 M phosphate buffer (pH 7.4) and incubated at 37 °C for 30 min by rotation at 60 rpm. An aliquot of 50 μL of the incubation mixture was sampled and added to 250 μL of chilled acetonitrile/internal standard (IS). After centrifuging for 15 min at 3150×g (4 °C), the supernatants were analyzed by LC–MS/MS. Hepatic microsomal stability (mL/min/kg, CLint) was calculated according to the previous report, using 48.8 and 45.4 mg MS protein/g liver and 25.7 and 87.5 g liver/kg body weight as scaling factors for human and mouse, respectively.
(§5) Basically, the analysis was performed using methods previously reported. An LC-MS8060 instrument equipped with a Shimadzu Nexera series LC system (Shimadzu, Kyoto, Japan) was used. All compounds were analyzed in multi-reaction monitoring mode under electron spray ionization conditions. The analytical column used was a […] C18 MGIII (3 μm × 2.0 mmID × 35 mm; OSAKA SODA, Osaka, Japan) at 50 °C. The gradient mobile phase consisted of 0.1% formic acid in water (mobile phase A,) and 0.1% formic acid in acetonitrile (mobile phase B) at a total flow rate of 1 mL/min. The initial mobile phase composition was 10% B, which was held constant for 0.2 min, increased in a linear fashion to 90% B over 1 min, then held constant for 0.8 min, and finally brought back to the initial condition of 10% B over 0.01 min and re-equilibrated for 1 min. The transitions (precursor ion > product ion) of echinomycin, 3 and IS (methyl testosterone) are 1101.45 > 1053.5 (positive), 1083.5 > 523.95 (negative), and 303.1 > 109.1 (positive), respectively.
Background: Liver microsomes are a subcellular fraction often used to study metabolism.

Series [2] in a line: Hepatic microsomal stability assay, mouse. The format is in vitro ADME. Particulars: 0.2 mg/mL microsomes, 37 °C, 30 min; for CLint scaled: microsomes, 1 μM; for CLint scaled at 1 μM: mouse liver microsomes, pH 7.4, 1 μM. The protocol: as §3, §4, §5
A short description of series [3]: Investigation of maximum tolerated dose (body weight of mice). The format is in vivo, mouse. Particulars: 14 days. The protocol:
(§6) Toxicity Body weight change is an indicator of systemic toxicity. Accordingly, the body weights of mice intraperitoneally treated with different doses (0.04 and 0.4 µg/mouse) of either 1 or 3 were measured (Fig. S1). […] A blood hematological examination (including nineteen parameters) was also conducted on these mice on Day 14 (Fig. S2). There were no significant changes in almost any of the parameters in the mice treated with either 1 or 3 at doses of 0.04 or 0.4 µg/mouse.

A short description of series [4]: Serum biochemistry / blood examination of treated mice. The conditions noted are these: 0.4 µg/mouse i.p., Day 14. In kind it is in vivo. The protocol:
as §6
Male BALB/c mice (7 weeks old) were purchased from Charles River Laboratories Japan, Inc. Each compound was intraperitoneally injected daily for 14 days. […] Serum was collected by centrifuging blood at 5000 rpm for 10 min. Biochemistry was performed in Oriental Yeast Co., Ltd, Japan.

Where [5] appears, read: NADPH(+), read-out: Metabolic stability (CLint) Human NADPH(+).
Setting [6] is: NADPH(−), read-out: Metabolic stability (CLint) Human NADPH(−).
Where [7] appears, read: NADPH(+), read-out: Metabolic stability (CLint) Mouse NADPH(+).
Setting [8] is: NADPH(−), read-out: Metabolic stability (CLint) Mouse NADPH(−).

On to `CC(C)[C@H]1C(=O)OC[C@@H](NC(=O)c2nc3ccccc3cc2O)C(=O)N[C@@H](C)C(=O)N(C)[C@H]2CSC[C@@H](C(=O)N1C)N(C)C(=O)[C@H](C)NC(=O)[C@H](NC(=O)c1nc3ccccc3cc1O)COC(=O)[C@H](C(C)C)N(C)C2=O` [Compound 3], for which the concentration for half-maximal inhibition (IC50) with SW620 cells was 0.85 ± 0.13 nM; in the series on MIA PaCa-2 cells it was 1.4 ± 0.1 nM. In series [1] (liver microsomes, pH 7.4, 37 °C, in the presence of NADPH, read-out: fraction unaffected by human liver microsomes), the remaining at 0.5 h, 1 μM was around 67%. Moreover, the CLint scaled in series [1] (setting [5]) was 5.02 L/h/kg; in series [1] (setting [6]), 2.71 L/h/kg; in series [2] (setting [7]), 23.2 L/h/kg; in series [2] (setting [8]) it was 7.08 L/h/kg. In addition, in series [3] (i.p. 0.04 and 0.4 µg/mouse, daily), the body weight result is “did not differ greatly from those of the control”. Besides, in series [3] (i.p. daily, body weight and blood examination), the “dose up to which no significant toxicity is shown” value is given as at least 0.04 µg/mouse. The same compound returned a maximum tolerated dose in series [3] (i.p. daily, expected) of 0.04 µg/mouse. For the same compound, in series [4], the “alanine aminotransferase (ALT)” value is listed as “increase”. Besides, the “aspartate aminotransferase (AST)” value in series [4] is listed as “increase”. For the same compound, the “lactate dehydrogenase (LDH)” value in series [4] is given as “increase”. For the same compound, the “total bilirubin (T-BIL)” value in series [4] is recorded as “decrease”.

On to `Cc1ncc2n1-c1ccc(Cl)cc1C(c1ccccc1F)=NC2` [Midazolam], for which the CLint scaled at 1 μM in series [1] (setting [5]) was 26.1 L/h/kg; in series [1] (setting [6]), below 1.32 L/h/kg; in series [2] (setting [7]) it was 240 L/h/kg; in series [2] (setting [8]), below 4.19 L/h/kg.
